{
  "source": "patent US20110053773A1",
  "about": "“METHODS OF IMPROVING NUTRITIONAL VALUE OF PLANTS” (UNIVERSITY OF TENNESSEE RESEARCH FOUNDATION, priority 2009, published 2011)",
  "key": {"[1]": {"test_system": "sweet corn variety 'Incredible'", "assay": "Sugar and key antioxidant content of sweet corn (Example 1, Table 15)", "type": "in vivo, Zea mays var. rugosa", "settings": "rates g ai/ha: Nicosulfuron 35, Mesotrione 105, Topramezone 18, Isoxadifen-ethyl 13, all incl. treated check with atrazine 560 g ai/ha + 1% v/v crop oil concentrate", "excerpt": "Herbicide treatments were applied in a water carrier at 23 gallons of solution per acre on a field site near Knoxville, Tenn. and Painter, Va. […] All treatments included a PRE application of atrazine plus metolachlor in order to maintain weed free conditions. In addition, all POST treatments (including the treated check) included atrazine at 560 g ai/ha and crop oil concentrate at 1% v/v. […] Sweet corn was harvested from the center two rows of each four row plot and weighed in the husk."}, "[2]": {"test_system": "sweet corn (Zea mays var. rugosa) cultivar 'Incredible'", "assay": "Content analysis of sweet corn ears: crude protein, amino acids, detergent fiber, fatty acids, minerals (Example 1)", "type": "in vivo", "settings": "POST at b59 rates; every treatment incl. check also got atrazine 560 g ai/ha + COC 1% v/v; relative to treated check (atrazine), check=0", "excerpt": "Herbicide treatments were applied in a water carrier at 23 gallons of solution per acre on a field site near Knoxville, Tenn. and Painter, Va. Treatments include the following: 1) nicosulfuron at 35 g ai/ha (Accent); 2) mesotrione at 105 g ai/ha (Callisto); 3) nicosulfuron at 35 g ai/ha+mesotrione at 105 g ai/ha (Callisto+Accent); 4) tembotrione at 92 g ai/ha+isoxadifen-ethyl at 46 g ai/ha (Laudis); 5) topramezone at 15 g ai/ha (Impact); 6) nicosulfuron at 35 g ai/ha+isoxadifen-ethyl at 9 g ai/ha (Accent Q); 7) nicosulfuron at 35 g ai/ha+isoxadifen-ethyl at 9 g ai/ha+topramezone at 15 g ai/ha (Accent Q+Impact); 8) nicosulfuron 35 g ai/ha+isoxadifen-ethyl at 9 g ai/ha+mesotrione at 105 g ai/ha (Accent Q+Callisto); 9) treated check (atrazine or Aatrex). All treatments included a PRE application of atrazine plus metolachlor in order to maintain weed free conditions. In addition, all POST treatments (including the treated check) included atrazine at 560 g ai/ha and crop oil concentrate at 1% v/v. […] Sweet corn was harvested from the center two rows of each four row plot and weighed in the husk."}, "basil 'Genovese'": {"test_system": "basil 'Genovese'", "assay": "Content analysis of basil: protein, minerals (Example 4, Tables 10-11)", "type": "in vivo", "settings": "28 DA-A, rates g ai/ha: chlroprifos 3370, chlorothalonil 7900, paclobutrazol 9.7, mepiquat-chloride 37, Isoxadifen 16, Napthalic anhydride 527, + NIS 0.25 % v/v", "description": "Greenhouse and laboratory studies were conducted to ascertain the tolerance and nutritional quality differences following postemergence applications of the insecticide chlorpyrifos, the fungicide chlorothalonil, the PGRs mepiquat-chloride and paclobutrazol, and the safeners napthalic anhydride and isoxadifen-ethyl on kale ‘Red Russian’ and basil ‘Genovese’. Visual injury was rated based on general phytotoxicity, chlorosis, and visual stunting and each measurement was based on a percent scale from 0 to 100 where 0 equals no visual response and 100 equals complete plant death. Kale and basil were both harvested approximately 4 weeks after treatments and plants were pooled over replicates for content analysis of crude protein, crude amino acid content, acid detergent fiber, neutral detergent fiber, total fatty acids, and/or key mineral content (including Na, Ca, P, Mg, K, Fe, Mn, Zn, and Cu). In addition, the amounts of key individual amino acids (aspartic acid, threonine, glutamic acid, proline, glycine, cysteine, valine, leucine, isoleucine, methionine, and lysine) and composite classifications of fatty acid (saturated fatty acids, monounsaturated fatty acids, polyunsaturated fatty acids) were also analyzed from these sub-samples for kale (Tables 10-14)."}},
  "data": [
    {"smiles": "COc1cc(OC)nc(NC(=O)NS(=O)(=O)c2ncccc2C(=O)N(C)C)n1", "note": "[Nicosulfuron*ACCENT, nicosulfuron]", "values": [
      {"measurement": "Fructose, percent increase", "setting": "[1]", "result": 48, "unit": "%"},
      {"measurement": "Gamma-tocopherol, percent increase", "setting": "[1]", "result": 1, "unit": "%"},
      {"measurement": "Glucose, percent increase", "setting": "[1]", "result": 35, "unit": "%"},
      {"measurement": "Lutein, percent increase", "setting": "[1]", "result": 9, "unit": "%"},
      {"measurement": "Maltose, percent increase", "setting": "[1]", "result": 23, "unit": "%"},
      {"measurement": "Sucrose, percent increase", "setting": "[1]", "result": "−4", "unit": "%"},
      {"measurement": "Total Sugars, percent increase", "setting": "[1]", "result": 16, "unit": "%"},
      {"measurement": "Zeaxanthin, percent increase", "setting": "[1]", "result": 9, "unit": "%"},
      {"measurement": "antheraxanthin, percent increase", "setting": "[1]", "result": 15, "unit": "%"},
      {"measurement": "Acid DF", "setting": "[2]", "result": "9 % of check"},
      {"measurement": "Alanine", "setting": "[2]", "result": "1 % of check"},
      {"measurement": "Amino Acid", "setting": "[2]", "result": "−1 % of check"},
      {"measurement": "Aspartic ac", "setting": "[2]", "result": "−4 % of check"},
      {"measurement": "Cysteine", "setting": "[2]", "result": "0 % of check"},
      {"measurement": "Glutamic ac", "setting": "[2]", "result": "−2 % of check"},
      {"measurement": "Glycine", "setting": "[2]", "result": "−4 % of check"},
      {"measurement": "Isoleucine", "setting": "[2]", "result": "0 % of check"},
      {"measurement": "Leucine", "setting": "[2]", "result": "0 % of check"},
      {"measurement": "Lysine", "setting": "[2]", "result": "1 % of check"},
      {"measurement": "Methionine", "setting": "[2]", "result": "0 % of check"},
      {"measurement": "Neutral DF", "setting": "[2]", "result": "4 % of check"},
      {"measurement": "Proline", "setting": "[2]", "result": "−7 % of check"},
      {"measurement": "Protein", "setting": "[2]", "result": "7 % of check"},
      {"measurement": "Threonine", "setting": "[2]", "result": "2 % of check"},
      {"measurement": "Valine", "setting": "[2]", "result": "0 % of check"},
      {"measurement": "calcium", "setting": "[2]", "result": "0 % of check"},
      {"measurement": "copper", "setting": "[2]", "result": "0 % of check"},
      {"measurement": "iron", "setting": "[2]", "result": "14 % of check"},
      {"measurement": "magnesium", "setting": "[2]", "result": "14 % of check"},
      {"measurement": "manganese", "setting": "[2]", "result": "33 % of check"},
      {"measurement": "mon fattyac", "setting": "[2]", "result": "15 % of check"},
      {"measurement": "phosphorous", "setting": "[2]", "result": "6 % of check"},
      {"measurement": "polyfattyac", "setting": "[2]", "result": "12 % of check"},
      {"measurement": "potassium", "setting": "[2]", "result": "1 % of check"},
      {"measurement": "sat fattyac", "setting": "[2]", "result": "12 % of check"},
      {"measurement": "sodium", "setting": "[2]", "result": "21 % of check"},
      {"measurement": "tot fattyac", "setting": "[2]", "result": "13 % of check"},
      {"measurement": "zinc", "setting": "[2]", "result": "2 % of check"}
    ]},
    {"smiles": "Cc1c(C(=O)c2cnn(C)c2O)ccc(S(C)(=O)=O)c1C1=NOCC1", "note": "[Topramezone*IMPACT, topramezone]", "values": [
      {"measurement": "Fructose, percent increase", "setting": "[1]", "result": 63, "unit": "%"},
      {"measurement": "Gamma-tocopherol, percent increase", "setting": "[1]", "result": 8, "unit": "%"},
      {"measurement": "Glucose, percent increase", "setting": "[1]", "result": 40, "unit": "%"},
      {"measurement": "Lutein, percent increase", "setting": "[1]", "result": 0, "unit": "%"},
      {"measurement": "Maltose, percent increase", "setting": "[1]", "result": 8, "unit": "%"},
      {"measurement": "Sucrose, percent increase", "setting": "[1]", "result": "−18", "unit": "%"},
      {"measurement": "Total Sugars, percent increase", "setting": "[1]", "result": 10, "unit": "%"},
      {"measurement": "Zeaxanthin, percent increase", "setting": "[1]", "result": "−8", "unit": "%"},
      {"measurement": "antheraxanthin, percent increase", "setting": "[1]", "result": 23, "unit": "%"},
      {"measurement": "Acid DF", "setting": "[2]", "result": "2 % of check"},
      {"measurement": "Alanine", "setting": "[2]", "result": "8 % of check"},
      {"measurement": "Amino Acid", "setting": "[2]", "result": "7 % of check"},
      {"measurement": "Aspartic ac", "setting": "[2]", "result": "6 % of check"},
      {"measurement": "Cysteine", "setting": "[2]", "result": "3 % of check"},
      {"measurement": "Glutamic ac", "setting": "[2]", "result": "6 % of check"},
      {"measurement": "Glycine", "setting": "[2]", "result": "4 % of check"},
      {"measurement": "Isoleucine", "setting": "[2]", "result": "10 % of check"},
      {"measurement": "Leucine", "setting": "[2]", "result": "8 % of check"},
      {"measurement": "Lysine", "setting": "[2]", "result": "10 % of check"},
      {"measurement": "Methionine", "setting": "[2]", "result": "8 % of check"},
      {"measurement": "Neutral DF", "setting": "[2]", "result": "7 % of check"},
      {"measurement": "Proline", "setting": "[2]", "result": "6 % of check"},
      {"measurement": "Protein", "setting": "[2]", "result": "8 % of check"},
      {"measurement": "Threonine", "setting": "[2]", "result": "12 % of check"},
      {"measurement": "Valine", "setting": "[2]", "result": "9 % of check"},
      {"measurement": "calcium", "setting": "[2]", "result": "0 % of check"},
      {"measurement": "copper", "setting": "[2]", "result": "0 % of check"},
      {"measurement": "iron", "setting": "[2]", "result": "23 % of check"},
      {"measurement": "magnesium", "setting": "[2]", "result": "13 % of check"},
      {"measurement": "manganese", "setting": "[2]", "result": "38 % of check"},
      {"measurement": "mon fattyac", "setting": "[2]", "result": "10 % of check"},
      {"measurement": "phosphorous", "setting": "[2]", "result": "8 % of check"},
      {"measurement": "polyfattyac", "setting": "[2]", "result": "9 % of check"},
      {"measurement": "potassium", "setting": "[2]", "result": "6 % of check"},
      {"measurement": "sat fattyac", "setting": "[2]", "result": "8 % of check"},
      {"measurement": "sodium", "setting": "[2]", "result": "29 % of check"},
      {"measurement": "tot fattyac", "setting": "[2]", "result": "9 % of check"},
      {"measurement": "zinc", "setting": "[2]", "result": "4 % of check"}
    ]},
    {"smiles": "CCOP(=S)(OCC)Oc1nc(Cl)c(Cl)cc1Cl", "note": "[chlroprifos]", "values": [
      {"measurement": "ADF, Percent Increase Over the Untreated Check (on a % dry matter basis)", "setting": "basil 'Genovese'", "result": 10, "unit": "% check"},
      {"measurement": "Calcium, Percent Increase Over the Untreated Check (on a % dry matter basis)", "setting": "basil 'Genovese'", "result": 3, "unit": "% check"},
      {"measurement": "Copper, Percent Increase Over the Untreated Check (on a % dry matter basis)", "setting": "basil 'Genovese'", "result": 8, "unit": "% check"},
      {"measurement": "Iron, Percent Increase Over the Untreated Check (on a % dry matter basis)", "setting": "basil 'Genovese'", "result": 57, "unit": "% check"},
      {"measurement": "Magnesium, Percent Increase Over the Untreated Check (on a % dry matter basis)", "setting": "basil 'Genovese'", "result": 21, "unit": "% check"},
      {"measurement": "Manganese, Percent Increase Over the Untreated Check (on a % dry matter basis)", "setting": "basil 'Genovese'", "result": 12, "unit": "% check"},
      {"measurement": "NDF, Percent Increase Over the Untreated Check (on a % dry matter basis)", "setting": "basil 'Genovese'", "result": 9, "unit": "% check"},
      {"measurement": "Phosphorous, Percent Increase Over the Untreated Check (on a % dry matter basis)", "setting": "basil 'Genovese'", "result": 50, "unit": "% check"},
      {"measurement": "Potassium, Percent Increase Over the Untreated Check (on a % dry matter basis)", "setting": "basil 'Genovese'", "result": 27, "unit": "% check"},
      {"measurement": "Protein, Percent Increase Over the Untreated Check (on a % dry matter basis)", "setting": "basil 'Genovese'", "result": 32, "unit": "% check"},
      {"measurement": "Sodium, Percent Increase Over the Untreated Check (on a % dry matter basis)", "setting": "basil 'Genovese'", "result": 25, "unit": "% check"},
      {"measurement": "Soluble protein, Percent Increase Over the Untreated Check (on a % dry matter basis)", "setting": "basil 'Genovese'", "result": 42, "unit": "% check"},
      {"measurement": "Zinc, Percent Increase Over the Untreated Check (on a % dry matter basis)", "setting": "basil 'Genovese'", "result": 46, "unit": "% check"}
    ]}
  ]
}
